The record followed here is PMC9133015 (Nature Communications, 2022).

Several values for one entry are separate records, joined by “and”; a condition that tells them apart may be missing. Equal entries are not always repeated. Where two headings read alike, the source gives them in different places.

One assay concerns the target T1, DYRK2 (Homo sapiens, UniProt Q92630).
T1 construct: purchased Reaction Biology Corporation (assay service)
T1 sequence (Q92630 1-601): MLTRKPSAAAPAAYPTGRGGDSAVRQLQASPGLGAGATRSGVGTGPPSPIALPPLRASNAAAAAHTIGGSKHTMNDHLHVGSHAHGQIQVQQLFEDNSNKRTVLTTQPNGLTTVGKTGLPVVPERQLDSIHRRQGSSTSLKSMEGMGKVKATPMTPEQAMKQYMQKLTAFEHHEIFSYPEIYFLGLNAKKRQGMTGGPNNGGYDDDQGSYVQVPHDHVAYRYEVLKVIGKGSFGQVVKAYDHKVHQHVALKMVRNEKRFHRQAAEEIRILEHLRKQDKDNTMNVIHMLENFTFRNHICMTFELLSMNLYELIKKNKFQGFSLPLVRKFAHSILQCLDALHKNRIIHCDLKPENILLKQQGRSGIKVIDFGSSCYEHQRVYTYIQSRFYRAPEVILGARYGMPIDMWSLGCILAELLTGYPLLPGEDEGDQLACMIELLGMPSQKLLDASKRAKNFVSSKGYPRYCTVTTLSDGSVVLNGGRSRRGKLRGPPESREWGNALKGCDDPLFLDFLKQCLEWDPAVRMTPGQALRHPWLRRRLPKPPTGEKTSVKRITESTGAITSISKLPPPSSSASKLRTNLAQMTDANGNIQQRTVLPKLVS
Description: DYRKs kinase activity assay (33P-ATP, DYRKtide substrate): DYRK2. It counts as biochemical.

A further assay deals with T2, DYRK2 protein (Homo sapiens, UniProt Q92630).
T2 construct: 6xHis (N, cleaved yes); TEV protease cleavage site (N, cleaved yes); made in house; host or cells: E. coli BL21 (DE3)
T2 sequence (Q92630 72-479 isoform Q92630-2): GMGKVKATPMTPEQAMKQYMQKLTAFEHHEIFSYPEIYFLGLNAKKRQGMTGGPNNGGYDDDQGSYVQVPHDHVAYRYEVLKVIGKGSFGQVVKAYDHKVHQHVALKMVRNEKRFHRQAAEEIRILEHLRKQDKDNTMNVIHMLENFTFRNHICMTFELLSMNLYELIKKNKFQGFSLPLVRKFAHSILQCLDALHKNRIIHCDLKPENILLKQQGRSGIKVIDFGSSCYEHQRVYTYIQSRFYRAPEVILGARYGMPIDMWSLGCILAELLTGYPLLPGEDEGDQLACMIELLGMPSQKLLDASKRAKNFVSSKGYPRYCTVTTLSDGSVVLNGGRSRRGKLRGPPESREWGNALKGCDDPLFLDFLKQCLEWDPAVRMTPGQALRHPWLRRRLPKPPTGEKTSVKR
The assay is described as follows: Microscale thermophoresis binding assay. The settings on record: for Fnorm: triplicates.

The mark [1] stands for this setting: DYRK2 kinase, Conc. 0.000508053 µM, duplicate values.
The mark [2] stands for this setting: DYRK2 kinase, Conc. 0.00152416 µM, duplicate values.
Setting [3] is: DYRK2 kinase, Conc. 0.00457247 µM, duplicate values.
Setting [4] is: DYRK2 kinase, Conc. 0.0137174 µM, duplicate values.
Where [5] appears, read: DYRK2 kinase, Conc. 0.0137174 µM, duplicate values, read-out: % Inhibition.
[6] abbreviates: DYRK2 kinase, Conc. 0.0411523 µM, duplicate values.
Where [7] appears, read: DYRK2 kinase, Conc. 0.0411523 µM, duplicate values, read-out: % Inhibition.
[8] abbreviates: DYRK2 kinase, Conc. 0.123457 µM, duplicate values.
Setting [9] is: DYRK2 kinase, Conc. 0.123457 µM, duplicate values, read-out: % Inhibition.
[10] abbreviates: DYRK2 kinase, Conc. 0.37037 µM, duplicate values.
[11] abbreviates: DYRK2 kinase, Conc. 0.37037 µM, duplicate values, read-out: % Inhibition.
Setting [12] is: DYRK2 kinase, Conc. 1.11111 µM, duplicate values.
Setting [13] is: DYRK2 kinase, Conc. 1.11111 µM, duplicate values, read-out: % Inhibition.
[14] abbreviates: DYRK2 kinase, Conc. 3.33333 µM, duplicate values.
Where [15] appears, read: DYRK2 kinase, Conc. 3.33333 µM, duplicate values, read-out: % Inhibition.
The mark [16] stands for this setting: DYRK2 kinase, Conc. 10 µM, duplicate values.
[17] abbreviates: DYRK2 kinase, Conc. 10 µM, duplicate values, read-out: % Inhibition.
[18] abbreviates: Supplementary Table 1, read-out: IC50 (μM), DYRK2 kinase.
Where [19] appears, read: DYRK2 kinase, Conc. 0.00152416 µM, duplicate values, read-out: % Inhibition.

Regarding `CCN1CCN(Cc2ccc(Nc3ncc(F)c(-c4ccc5ncsc5c4)n3)nc2)CC1` [Compound 16], the “% Inhibition” value on DYRK2 (setting [1]) is 0.29% and 3.35%; on DYRK2 (setting [2]) it was -2.64% and 1.62%; at DYRK2 (setting [3]) it was 1.68% and 3.59%; at DYRK2 (setting [4]), 8.22%; at DYRK2 (setting [6]), 26.26%; on DYRK2 (setting [8]), 48.52%. The “% Inhibition” value at DYRK2 (setting [10]) is 63.31%; at DYRK2 (setting [12]), 68.60%; on DYRK2 (setting [14]), 73.48%; at DYRK2 (setting [16]), 77.29%. The inhibition at 0.0137174 µM on DYRK2 (setting [5]) was determined as 6.53%. Further, the inhibition at 0.0411523 µM at DYRK2 (setting [7]) was found to be 23.1%. In addition, the inhibition at 0.123457 µM at DYRK2 (setting [9]) came to 47.2%. For the same molecule, the inhibition at 0.37037 µM on DYRK2 (setting [11]) worked out at 64.2%. At DYRK2 (setting [13]), the inhibition at 1.11111 µM was 68.6%. In addition, the inhibition at 3.33333 µM at DYRK2 (setting [15]) was found to be 73.6%. The inhibition at 10 µM on DYRK2 (setting [17]) is 76.9%.

On to `O=C(CSc1nnc2sc3ccccc3n12)N1CCN(C(=O)CSc2nnc3sc4ccccc4n23)CC1` [Compound 4], for which the “% Inhibition” value is 0.98% and -1.30% at DYRK2 (setting [1]); 14.00% and 9.63% at DYRK2 (setting [2]); 3.52% and 1.28% at DYRK2 (setting [3]); 7.11% and 4.92% at DYRK2 (setting [4]); 13.04% and 8.66% on DYRK2 (setting [6]); 25.55% and 23.66% at DYRK2 (setting [8]). Also, the “% Inhibition” value on DYRK2 (setting [10]) was 22.22% and 20.28%; on DYRK2 (setting [12]) it was 26.61% and 24.74%; at DYRK2 (setting [14]), 20.66% and 23.29%; at DYRK2 (setting [16]), 27.83% and 25.98%. In addition, the half-inhibitory concentration (IC50) at DYRK2 (setting [18]) was > 10 µM.

As for `CCN1CCN(C(=O)c2cnc(Nc3ncc(F)c(-c4ccc5ncsc5c4)n3)nc2)CC1` [Compound 22], the “% Inhibition” value is recorded as -2.89% at DYRK2 (setting [1]); 2.13% at DYRK2 (setting [3]); 26.76% at DYRK2 (setting [8]); 58.80% on DYRK2 (setting [12]); 75.98% at DYRK2 (setting [14]); 87.41% at DYRK2 (setting [16]). Besides, the inhibition at 0.00152416 µM on DYRK2 (setting [19]) came to 0.87%. The inhibition at 0.00457247 µM on DYRK2 (setting [3]) came out at 2.31%. Further, the inhibition at 0.0137174 µM on DYRK2 (setting [5]) is 3.91%. In addition, the inhibition at 0.0411523 µM at DYRK2 (setting [7]) turned out to be 13.2%. The inhibition at 0.123457 µM at DYRK2 (setting [9]) amounted to 25%. The inhibition at 0.37037 µM at DYRK2 (setting [11]) came to 35.1%. The inhibition at 1.11111 µM at DYRK2 (setting [13]) is 58.5%. Besides, the inhibition at 3.33333 µM at DYRK2 (setting [15]) came to 76.2%. The inhibition at 10 µM at DYRK2 (setting [17]) was determined as 87.2%. Moreover, the IC50 at DYRK2 (read-out: DYRK2 IC50) was 0.697 µM.

Take `CC(C)N1CCN(Cc2ccc(Nc3ncc(F)c(-c4ccc5ncsc5c4)n3)nc2)CC1` [Compound 12]: the Kd on DYRK2 protein was found to be 4.21 µM. In addition, the Fnorm on DYRK2 protein (Ligand Concentration 1.52588e-9 M) was 954.38 ‰ and 953.199 ‰ and 953.894 ‰; at DYRK2 protein (Ligand Concentration 3.05176e-9 M) it was 952.707 ‰ and 951.359 ‰ and 952.777 ‰; at DYRK2 protein (Ligand Concentration 6.10352e-9 M), 952.691 ‰ and 953.017 ‰ and 952.481 ‰; on DYRK2 protein (Ligand Concentration 1.2207e-8 M), 952.212 ‰ and 953.635 ‰ and 952.43 ‰; at DYRK2 protein (Ligand Concentration 2.44141e-8 M) it was 953.58 ‰ and 951.571 ‰ and 954.168 ‰; on DYRK2 protein (Ligand Concentration 4.88281e-8 M), 951.243 ‰ and 951.794 ‰ and 952.294 ‰. For the same molecule, the Fnorm on DYRK2 protein (Ligand Concentration 9.76563e-8 M) is 951.852 ‰ and 953.231 ‰ and 951.931 ‰; on DYRK2 protein (Ligand Concentration 1.95313e-7 M), 949.537 ‰ and 959.016 ‰ and 950.589 ‰; on DYRK2 protein (Ligand Concentration 3.90625e-7 M), 952.367 ‰ and 950.104 ‰ and 950.78 ‰; on DYRK2 protein (Ligand Concentration 7.8125e-7 M), 949.243 ‰ and 949.342 ‰ and 952.357 ‰; at DYRK2 protein (Ligand Concentration 1.5625e-6 M) it was 951.973 ‰ and 948.051 ‰ and 949.742 ‰; at DYRK2 protein (Ligand Concentration 3.125e-6 M) it was 946.14 ‰ and 947.629 ‰ and 949.334 ‰. Besides, the Fnorm at DYRK2 protein (Ligand Concentration 6.25e-6 M) is 948.962 ‰ and 949.021 ‰ and 944.76 ‰; on DYRK2 protein (Ligand Concentration 1.25e-5 M), 945.246 ‰ and 944.859 ‰ and 943.424 ‰; at DYRK2 protein (Ligand Concentration 2.5e-5 M) it was 944.179 ‰ and 942.478 ‰ and 945.127 ‰; at DYRK2 protein (Ligand Concentration 5e-5 M), 942.507 ‰ and 940.515 ‰ and 942.733 ‰. For the same molecule, the inhibition at 0.00152416 µM came to 3.73% at DYRK2 (0.00152416 µM, duplicates, read-out: % Inhibition DYRK2) and 3.73% on DYRK2 (setting [19]). Also, the inhibition at 0.0137174 µM at DYRK2 (0.0137174 µM, duplicates, read-out: % Inhibition DYRK2) worked out at 8.64%; at DYRK2 (setting [5]) it was 8.64%. The inhibition at 0.0411523 µM on DYRK2 (0.0411523 µM, duplicates, read-out: % Inhibition DYRK2) came out at 21.1%; at DYRK2 (setting [7]) it was 21.1%. Moreover, the inhibition at 0.123457 µM on DYRK2 (0.123457 µM, duplicates, read-out: % Inhibition DYRK2) was 34.4%; at DYRK2 (setting [9]), 34.4%. The inhibition at 0.37037 µM at DYRK2 (0.37037 µM, duplicates, read-out: % Inhibition DYRK2) worked out at 57.9%; on DYRK2 (setting [11]), 57.9%. Moreover, the inhibition at 1.11111 µM came out at 76.8% on DYRK2 (1.11111 µM, duplicates, read-out: % Inhibition DYRK2) and 76.8% at DYRK2 (setting [13]). For the same molecule, the inhibition at 3.33333 µM on DYRK2 (3.33333 µM, duplicates, read-out: % Inhibition DYRK2) was found to be 87.6%; at DYRK2 (setting [15]) it was 87.6%. Moreover, the inhibition at 10 µM was 82.5% at DYRK2 (10 µM, duplicates, read-out: % Inhibition DYRK2) and 82.5% at DYRK2 (setting [17]). The “% Inhibition” value at DYRK2 (setting [1]) was 5.75% and 2.04%; at DYRK2 (setting [2]) it was 4.49%; on DYRK2 (setting [3]), 3.40% and 7.56%; on DYRK2 (setting [4]), 7.85%; on DYRK2 (setting [6]) it was 22.26%; on DYRK2 (setting [8]), 33.57%. Besides, the “% Inhibition” value on DYRK2 (setting [10]) stood at 58.41%; at DYRK2 (setting [12]) it was 75.65%; at DYRK2 (setting [14]), 88.99%; on DYRK2 (setting [16]) it was 86.13%. For the same molecule, the IC50 at DYRK2 (setting [18]) and on DYRK2 (read-out: DYRK2 IC50) was 0.263 µM in each case.
